Assay results as given in ChEMBL document CHEMBL4177534, “Discovery and evaluation of 1H-pyrrolo[2,3-b]pyridine based selective and reversible small molecule BTK inhibitors for the treatment of rheumatoid arthritis” (Bioorg Med Chem Lett, 2017).

Experiments:
[1] = system: Mus musculus; assay: Ex-vivo inhibition of BTK in C57BL/6J mouse assessed as anti-mouse IgD antibody stimulated BCR mediated CD69 level in whole blood isolated from 10 mg/kg, po bid treated mouse measured after 2 hrs post first dose by flow cytometry relative to control; format: functional; design: scale not given: the % may be the effect or the level left
[2] = target: Tyrosine-protein kinase BTK (Homo sapiens, UniProt Q06187); assay: Inhibition of recombinant human full length BTK preincubated for 10 mins followed by Tk-biotin peptide substrate addition after 90 mins by TR-FRET assay
[3] = Metabolic stability in rat liver microsomes assessed as metabolism rate; format: ADME, microsome
[4] = Metabolic stability in human liver microsomes assessed as metabolism rate; format: ADME, microsome
[5] = target: Tyrosine-protein kinase TXK (Homo sapiens, UniProt P42681); assay: Inhibition of TXK (unknown origin)
[6] = system: Mus musculus; assay: Ex-vivo inhibition of BTK in C57BL/6J mouse assessed as anti-mouse IgD antibody stimulated BCR mediated CD69 level in whole blood isolated from 10 mg/kg, po bid treated mouse measured after 24 hrs post first dose by flow cytometry relative to control; format: functional; design: scale not given: the % may be the effect or the level left
[7] = system: Mus musculus; assay: Ex-vivo inhibition of BTK in C57BL/6J mouse assessed as anti-mouse IgD antibody stimulated BCR mediated CD69 level in whole blood isolated from 100 mg/kg, po bid treated mouse measured after 24 hrs post first dose by flow cytometry relative to control; format: functional; design: scale not given: the % may be the effect or the level left
[8] = target: Inhibitor of nuclear factor kappa-B kinase subunit beta (Homo sapiens) (UniProt O14920); assay: Inhibition of recombinant human N-terminal GST-tagged IKKbeta expressed in baculovirus infected Sf9 cells assessed as change in enzyme activity at 1 uM in presence of 1 uM ATP relative to control; design: scale not given: the % may be the effect or the level left
[9] = target: Cyclin-dependent kinase 1/Cyclin A1 (Homo sapiens) (UniProt P06493+P78396); assay: Inhibition of recombinant human full length N-terminal GST-tagged CDK1/CyclinA1 expressed in baculovirus infected Sf9 cells assessed as change in enzyme activity at 1 uM in presence of 1 uM ATP relative to control; design: scale not given: the % may be the effect or the level left
[10] = target: Proto-oncogene tyrosine-protein kinase Src (Homo sapiens) (UniProt P12931); assay: Inhibition of SRC (unknown origin) assessed as change in enzyme activity in presence of 1 uM ATP relative to control; design: scale not given: the % may be the effect or the level left
[11] = target: High affinity nerve growth factor receptor (Homo sapiens) (UniProt P04629); assay: Inhibition of recombinant human N-terminal GST-tagged TRKA (440 to end residues) expressed in baculovirus infected Sf9 cells assessed as change in enzyme activity at 1 uM in presence of 2 uM ATP relative to control; design: scale not given: the % may be the effect or the level left
[12] = target: Calcium/calmodulin-dependent protein kinase type IV (Homo sapiens) (UniProt Q16566); assay: Inhibition of recombinant human full length N-terminal GST-tagged CAMK4 expressed in baculovirus infected Sf9 cells assessed as change in enzyme activity at 1 uM in presence of 2 uM ATP relative to control; design: scale not given: the % may be the effect or the level left
[13] = target: AMPK alpha2/beta1/gamma1 (Homo sapiens) (UniProt P54646+P54619+Q9Y478); assay: Inhibition of recombinant human full length C-terminal His tagged AMPKalpha2beta1gamma1 expressed in baculovirus infected Sf9 cells assessed as change in enzyme activity at 1 uM in presence of 2 uM ATP relative to control; design: scale not given: the % may be the effect or the level left
[14] = target: Ribosomal protein S6 kinase (Homo sapiens) (UniProt P51812+Q9UBS0+O75676+Q15349+O75582+P23443+Q9UK32+Q15418); assay: Inhibition of recombinant human full length N-terminal GST-tagged p70S6K expressed in baculovirus infected Sf9 cells assessed as change in enzyme activity at 1 uM in presence of 2 uM ATP relative to control; design: scale not given: the % may be the effect or the level left
[15] = target: Epidermal growth factor receptor (Homo sapiens) (UniProt P00533); assay: Inhibition of recombinant human N-terminal GST-tagged EGFR expressed in baculovirus infected Sf9 cells assessed as change in enzyme activity at 1 uM in presence of 1 uM ATP relative to control; design: scale not given: the % may be the effect or the level left
[16] = target: Mitogen-activated protein kinase 14 (Homo sapiens) (UniProt Q16539); assay: Inhibition of recombinant human full length N-terminal GST-tagged p38alpha expressed in baculovirus infected Sf9 cells assessed as change in enzyme activity at 1 uM in presence of 1 uM ATP relative to control; design: scale not given: the % may be the effect or the level left
[17] = target: Mitogen-activated protein kinase 3 (Homo sapiens) (UniProt P27361); assay: Inhibition of recombinant human full length ERK1 assessed as change in enzyme activity at 1 uM in presence of 1 uM ATP relative to control; design: scale not given: the % may be the effect or the level left
[18] = target: Glycogen synthase kinase-3 beta (Homo sapiens) (UniProt P49841); assay: Inhibition of recombinant human full length N-terminal GST/His tagged GSK3beta expressed in baculovirus infected Sf9 cells assessed as change in enzyme activity at 1 uM in presence of 1 uM ATP relative to control; design: scale not given: the % may be the effect or the level left
[19] = target: Tyrosine-protein kinase Blk (Homo sapiens) (UniProt P51451); assay: Inhibition of recombinant human full length N-terminal GST-tagged BLK expressed in baculovirus infected Sf9 cells assessed as change in enzyme activity at 1 uM in presence of 1 uM ATP relative to control; design: scale not given: the % may be the effect or the level left
[20] = target: Tyrosine-protein kinase Lyn (Homo sapiens) (UniProt P07948); assay: Inhibition of recombinant human full length N-terminal GST-tagged LYN A expressed in baculovirus infected Sf9 cells assessed as change in enzyme activity at 1 uM in presence of 1 uM ATP relative to control; design: scale not given: the % may be the effect or the level left
[21] = target: Serine/threonine-protein kinase Chk1 (Homo sapiens) (UniProt O14757); assay: Inhibition of recombinant human full length N-terminal GST/His tagged CHK1 expressed in baculovirus infected Sf9 cells assessed as change in enzyme activity at 1 uM in presence of 1 uM ATP relative to control; design: scale not given: the % may be the effect or the level left
[22] = target: Mitogen-activated protein kinase kinase kinase 9 (Homo sapiens) (UniProt P80192); assay: Inhibition of recombinant human N-terminal GST-tagged MLK1 (1 to 433 residues) expressed in baculovirus infected Sf9 cells assessed as change in enzyme activity at 1 uM in presence of 2 uM ATP relative to control; design: scale not given: the % may be the effect or the level left
[23] = target: Insulin-like growth factor 1 receptor (Homo sapiens) (UniProt P08069); assay: Inhibition of recombinant human N-terminal His tagged IGF1R (960 to end residues) expressed in baculovirus infected Sf9 cells assessed as change in enzyme activity at 1 uM in presence of 2 uM ATP relative to control; design: scale not given: the % may be the effect or the level left
[24] = target: PAK 1/CDC42 (Homo sapiens) (UniProt Q13153+P60953); assay: Inhibition of recombinant human full length N-terminal GST-tagged PAK1/CDC42 expressed in baculovirus infected Sf9 cells assessed as change in enzyme activity at 1 uM in presence of 2 uM ATP relative to control; design: scale not given: the % may be the effect or the level left
[25] = target: Serine/threonine-protein kinase VRK1 (Homo sapiens) (UniProt Q99986); assay: Inhibition of recombinant human full length N-terminal GST-tagged VRK1 expressed in baculovirus infected Sf9 cells assessed as change in enzyme activity at 1 uM in presence of 2 uM ATP relative to control; design: scale not given: the % may be the effect or the level left
[26] = system: Mus musculus; assay: Ex-vivo inhibition of BTK in C57BL/6J mouse assessed as anti-mouse IgD antibody stimulated BCR mediated CD69 level in whole blood isolated from 10 to 100 mg/kg, po bid treated mouse measured after 2 hrs post first dose by flow cytometry relative to control; format: functional; design: scale not given: the % may be the effect or the level left

Sequence of Cyclin-dependent kinase 1/Cyclin A1 (Homo sapiens) (P06493 whole entry, looked up): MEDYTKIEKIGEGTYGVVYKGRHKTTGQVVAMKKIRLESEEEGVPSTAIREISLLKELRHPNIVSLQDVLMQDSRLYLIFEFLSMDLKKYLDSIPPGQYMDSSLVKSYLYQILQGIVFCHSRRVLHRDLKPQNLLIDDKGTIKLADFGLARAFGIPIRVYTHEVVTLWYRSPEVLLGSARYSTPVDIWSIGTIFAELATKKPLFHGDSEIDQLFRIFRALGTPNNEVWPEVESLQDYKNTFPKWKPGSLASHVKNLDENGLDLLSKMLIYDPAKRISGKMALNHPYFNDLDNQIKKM
Sequence of Cyclin-dependent kinase 1/Cyclin A1 (Homo sapiens) (P78396 whole entry, looked up): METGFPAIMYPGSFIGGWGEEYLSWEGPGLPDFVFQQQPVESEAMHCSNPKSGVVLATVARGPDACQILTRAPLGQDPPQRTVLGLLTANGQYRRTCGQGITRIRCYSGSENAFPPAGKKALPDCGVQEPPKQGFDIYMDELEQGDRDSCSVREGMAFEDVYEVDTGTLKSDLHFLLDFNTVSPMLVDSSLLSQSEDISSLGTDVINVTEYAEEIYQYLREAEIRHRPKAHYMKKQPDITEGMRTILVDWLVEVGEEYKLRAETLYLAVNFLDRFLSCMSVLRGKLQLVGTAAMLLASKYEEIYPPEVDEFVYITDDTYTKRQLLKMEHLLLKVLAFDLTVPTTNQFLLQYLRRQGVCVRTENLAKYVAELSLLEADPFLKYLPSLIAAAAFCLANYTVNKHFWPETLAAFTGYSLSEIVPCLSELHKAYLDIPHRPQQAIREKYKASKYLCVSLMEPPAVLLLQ
Sequence of Tyrosine-protein kinase TXK (P42681 whole entry): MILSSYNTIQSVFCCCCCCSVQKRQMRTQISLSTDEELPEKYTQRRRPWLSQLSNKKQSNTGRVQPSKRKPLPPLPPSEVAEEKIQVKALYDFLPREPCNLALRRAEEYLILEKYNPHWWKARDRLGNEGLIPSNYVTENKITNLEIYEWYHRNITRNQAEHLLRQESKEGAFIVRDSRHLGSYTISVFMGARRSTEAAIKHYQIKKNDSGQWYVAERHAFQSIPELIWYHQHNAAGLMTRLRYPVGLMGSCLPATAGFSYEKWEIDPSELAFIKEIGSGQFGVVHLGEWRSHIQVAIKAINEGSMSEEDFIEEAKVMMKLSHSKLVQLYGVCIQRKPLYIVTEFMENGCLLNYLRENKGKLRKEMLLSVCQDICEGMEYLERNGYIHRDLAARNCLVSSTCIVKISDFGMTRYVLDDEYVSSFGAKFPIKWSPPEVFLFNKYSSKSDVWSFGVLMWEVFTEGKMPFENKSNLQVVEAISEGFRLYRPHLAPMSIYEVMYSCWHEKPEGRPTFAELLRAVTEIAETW
Sequence of Glycogen synthase kinase-3 beta (Homo sapiens) (P49841 whole entry, looked up): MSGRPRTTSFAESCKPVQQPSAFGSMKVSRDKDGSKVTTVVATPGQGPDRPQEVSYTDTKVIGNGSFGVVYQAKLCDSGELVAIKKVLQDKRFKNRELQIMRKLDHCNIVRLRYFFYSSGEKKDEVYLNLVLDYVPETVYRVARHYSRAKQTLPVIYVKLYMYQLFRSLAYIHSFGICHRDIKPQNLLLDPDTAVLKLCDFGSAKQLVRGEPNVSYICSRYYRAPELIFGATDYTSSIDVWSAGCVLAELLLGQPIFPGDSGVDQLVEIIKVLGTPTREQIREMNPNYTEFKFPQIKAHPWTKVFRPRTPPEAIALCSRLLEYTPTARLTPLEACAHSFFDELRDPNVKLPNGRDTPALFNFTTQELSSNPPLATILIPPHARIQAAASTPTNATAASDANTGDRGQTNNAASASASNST
Sequence of AMPK alpha2/beta1/gamma1 (Homo sapiens) (P54619 whole entry partner): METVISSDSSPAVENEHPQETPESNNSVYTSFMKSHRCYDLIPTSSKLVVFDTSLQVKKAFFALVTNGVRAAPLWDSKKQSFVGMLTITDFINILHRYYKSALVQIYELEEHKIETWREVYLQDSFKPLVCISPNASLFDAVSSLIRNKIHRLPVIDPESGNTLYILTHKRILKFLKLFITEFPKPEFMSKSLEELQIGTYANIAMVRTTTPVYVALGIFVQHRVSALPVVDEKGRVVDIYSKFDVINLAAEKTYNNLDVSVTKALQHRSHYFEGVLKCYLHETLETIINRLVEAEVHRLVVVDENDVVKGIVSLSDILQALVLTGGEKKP
Sequence of AMPK alpha2/beta1/gamma1 (Homo sapiens) (P54646 whole entry): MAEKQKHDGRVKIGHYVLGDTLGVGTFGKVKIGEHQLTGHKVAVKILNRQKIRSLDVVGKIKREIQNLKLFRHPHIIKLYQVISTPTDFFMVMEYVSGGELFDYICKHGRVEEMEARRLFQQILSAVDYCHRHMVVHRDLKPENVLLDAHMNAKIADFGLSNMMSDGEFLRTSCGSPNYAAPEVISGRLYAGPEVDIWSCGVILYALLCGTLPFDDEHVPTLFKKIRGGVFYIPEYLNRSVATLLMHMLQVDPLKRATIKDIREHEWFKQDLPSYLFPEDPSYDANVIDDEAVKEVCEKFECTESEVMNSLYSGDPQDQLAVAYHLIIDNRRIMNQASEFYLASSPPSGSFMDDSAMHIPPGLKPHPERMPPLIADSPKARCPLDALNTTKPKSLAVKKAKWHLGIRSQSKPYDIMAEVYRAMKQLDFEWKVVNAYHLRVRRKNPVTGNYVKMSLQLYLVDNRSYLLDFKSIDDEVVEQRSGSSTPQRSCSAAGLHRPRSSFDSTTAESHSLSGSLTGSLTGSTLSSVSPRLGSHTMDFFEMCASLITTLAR
Sequence of AMPK alpha2/beta1/gamma1 (Homo sapiens) (Q9Y478 2-270 partner limits assumed): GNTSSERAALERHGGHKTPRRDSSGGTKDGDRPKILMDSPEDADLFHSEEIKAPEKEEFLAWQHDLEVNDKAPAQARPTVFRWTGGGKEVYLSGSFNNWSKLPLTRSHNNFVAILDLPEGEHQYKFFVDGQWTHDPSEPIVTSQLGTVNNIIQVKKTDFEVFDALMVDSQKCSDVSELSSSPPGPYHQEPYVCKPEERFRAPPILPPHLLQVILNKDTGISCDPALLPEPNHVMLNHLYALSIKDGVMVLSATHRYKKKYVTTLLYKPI
Sequence of Calcium/calmodulin-dependent protein kinase type IV (Homo sapiens) (Q16566 whole entry): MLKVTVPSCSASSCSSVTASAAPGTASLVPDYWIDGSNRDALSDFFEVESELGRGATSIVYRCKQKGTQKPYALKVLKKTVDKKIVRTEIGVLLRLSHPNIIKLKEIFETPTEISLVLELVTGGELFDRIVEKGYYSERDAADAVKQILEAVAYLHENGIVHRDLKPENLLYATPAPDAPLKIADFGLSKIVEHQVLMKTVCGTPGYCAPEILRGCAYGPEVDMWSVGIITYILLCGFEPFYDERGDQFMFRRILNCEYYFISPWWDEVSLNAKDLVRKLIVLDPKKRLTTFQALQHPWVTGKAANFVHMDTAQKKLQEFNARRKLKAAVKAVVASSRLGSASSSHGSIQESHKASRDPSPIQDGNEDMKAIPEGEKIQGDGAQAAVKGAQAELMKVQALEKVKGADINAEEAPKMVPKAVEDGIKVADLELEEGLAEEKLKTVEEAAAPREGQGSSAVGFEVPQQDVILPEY
Sequence of Tyrosine-protein kinase BTK (Q06187 whole entry): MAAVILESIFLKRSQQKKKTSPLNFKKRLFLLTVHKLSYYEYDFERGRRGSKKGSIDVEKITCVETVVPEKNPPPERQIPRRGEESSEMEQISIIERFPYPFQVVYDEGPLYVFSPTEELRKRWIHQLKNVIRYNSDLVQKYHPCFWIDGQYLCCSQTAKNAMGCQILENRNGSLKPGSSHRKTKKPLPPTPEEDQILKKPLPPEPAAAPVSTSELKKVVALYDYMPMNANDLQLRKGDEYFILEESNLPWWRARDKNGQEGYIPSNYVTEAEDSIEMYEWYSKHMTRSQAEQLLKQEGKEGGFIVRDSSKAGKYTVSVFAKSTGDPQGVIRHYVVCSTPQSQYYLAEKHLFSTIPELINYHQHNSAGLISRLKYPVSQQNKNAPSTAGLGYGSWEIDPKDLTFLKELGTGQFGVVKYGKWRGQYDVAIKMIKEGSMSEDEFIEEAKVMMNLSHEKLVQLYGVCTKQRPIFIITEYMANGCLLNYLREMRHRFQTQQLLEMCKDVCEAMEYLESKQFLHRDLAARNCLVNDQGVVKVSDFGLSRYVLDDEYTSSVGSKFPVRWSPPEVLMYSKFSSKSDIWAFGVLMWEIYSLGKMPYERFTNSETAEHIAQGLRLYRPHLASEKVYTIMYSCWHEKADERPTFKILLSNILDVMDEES
Sequence of Proto-oncogene tyrosine-protein kinase Src (Homo sapiens) (P12931 2-536 limits assumed): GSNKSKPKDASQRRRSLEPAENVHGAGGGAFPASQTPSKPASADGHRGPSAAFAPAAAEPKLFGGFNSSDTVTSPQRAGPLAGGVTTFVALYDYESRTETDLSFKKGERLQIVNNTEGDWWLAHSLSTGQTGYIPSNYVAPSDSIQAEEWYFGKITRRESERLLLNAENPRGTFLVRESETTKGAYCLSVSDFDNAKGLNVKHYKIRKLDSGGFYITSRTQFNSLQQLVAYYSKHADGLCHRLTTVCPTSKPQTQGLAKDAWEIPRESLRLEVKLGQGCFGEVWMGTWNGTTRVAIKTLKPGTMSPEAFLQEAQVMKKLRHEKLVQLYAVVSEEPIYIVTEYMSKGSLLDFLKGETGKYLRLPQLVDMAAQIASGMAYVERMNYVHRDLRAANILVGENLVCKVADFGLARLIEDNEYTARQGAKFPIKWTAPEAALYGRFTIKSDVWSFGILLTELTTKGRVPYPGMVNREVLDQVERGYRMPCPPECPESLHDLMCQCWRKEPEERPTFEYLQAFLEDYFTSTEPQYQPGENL
Sequence of Serine/threonine-protein kinase VRK1 (Homo sapiens) (Q99986 whole entry): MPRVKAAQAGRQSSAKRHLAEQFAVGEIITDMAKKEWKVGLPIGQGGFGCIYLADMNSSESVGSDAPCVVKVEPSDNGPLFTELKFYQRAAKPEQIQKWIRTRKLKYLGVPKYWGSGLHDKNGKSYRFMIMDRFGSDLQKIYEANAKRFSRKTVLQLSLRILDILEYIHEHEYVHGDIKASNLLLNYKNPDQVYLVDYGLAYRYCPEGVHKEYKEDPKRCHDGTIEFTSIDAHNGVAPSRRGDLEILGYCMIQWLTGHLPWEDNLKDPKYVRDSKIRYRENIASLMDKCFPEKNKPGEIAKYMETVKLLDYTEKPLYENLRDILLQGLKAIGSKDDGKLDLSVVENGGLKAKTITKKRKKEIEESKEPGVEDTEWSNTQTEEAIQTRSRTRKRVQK

| IC50 [2] [nM] | Drug metabolism [3] | Drug metabolism [4] [nmol/min/mg] | IC50 [5] [µM] | Activity [8] [%] | Activity [9] [%] | Activity [10] [%] | Activity [11] [%] | Activity [12] [%] | Activity [13] [%] | Activity [14] [%] | Activity [15] [%] | Activity [16] [%] | Activity [17] [%] | Activity [18] [%] | Activity [19] [%] | Activity [20] [%] | Activity [21] [%] | Activity [22] [%] | Activity [23] [%] | Compound | also measured |
| --- | --- | --- | --- | --- | --- | --- | --- | --- | --- | --- | --- | --- | --- | --- | --- | --- | --- | --- | --- | --- | --- |
| 2.6 | <= 0.04 nmol/min/mg | < 0.04 | > 10 | 0 | 1 | -33 | -4 | -5 | 2 | 2 | 2 | -7 | 2 | 2 | 1 | -12 | -14 | -6 | 4 | CCN1CCN(Cc2ccc(-c3cc4c(-c5cccc(N6CCOc7cc(C8CC8)cc(F)c7C6=O)c5CO)ccnc4[nH]3)nc2)CC1 | Activity [1]: 48%; Activity [6]: 40%; Activity [7]: 83%; Activity [24]: 0%; Activity [25]: 1% |
| 3.1 | < 0.04 nmol/min/mg | < 0.04 | > 10 | 1 | -3 | -26 | -10 | 1 | 1 | -28 | -1 | 4 | 1 | -2 | 3 | -2 | -3 | 2 | -6 | O=C1c2c(F)cc(C3CC3)cc2OCCN1c1cccc(-c2ccnc3[nH]c(C4=CCN(C5COC5)CC4)cc23)c1CO | Activity [26]: >90%; Activity [24]: 2%; Activity [25]: -8% |
